This passage reports IC50 results from patent publication US7947696B2, “2-amino-4-phenylquinazoline derivatives and the use thereof as HSP90 modulators” (Merck Patent GmbH, priority 2005, dated 2011).

In general, IC50 refers to the concentration that inhibits the measured activity by half.

The structures appear in SMILES notation. Counter-ions that a name gives are not always drawn.

This test addresses T1, Recombinant human HSP90α (Homo sapiens, UniProt P07900).
T1 construct: host or cells: E. coli
Kind of test: radioligand filter binding test, competition with [3H]17AAG for HSP90. The settings on record: [3H]17AAG 0.08 μM, HSP90 1.5 μg/assay, 22° C., 30 min, pH 7.0. An excerpt: The binding of geldanamycin or 17-allylamino-17-demethoxygeldanamycin (17AAG) to HSP90 and competitive inhibition thereof can be utilised in order to determine the inhibitory activity of the compounds according to the invention (Carreras et al. 2003, Chiosis et al. 2002).
In the specific case, a radioligand filter binding test is used. The radioligand used here is tritium-labelled 17-allylaminogeldanamycin, [3H]17AAG. This filter binding test allows a targeted search for inhibitors which interfere with the ATP binding site.
Recombinant human HSP90α(E. coli expressed, 95% purity); [3H]17AAG (17-allylaminogeldanamycin, [allylamino-2,3-^3H. Specific activity: 1.11×10^12 Bq/mmol (Moravek, MT-1717); HEPES filter buffer (50 mM HEPES, pH 7.0, 5 mM MgCl2, BSA 0.01%) Multiscreen FB (1 μm) filter plate (Millipore, MAFBNOB 50).
The 96-well microtitre filter plates are firstly irrigated and coated with 0.1% of polyethylenimine.
The test is carried out under the following conditions: • Reaction temperature 22° C. • Reaction time: 30 min., shaking at 800 rpm • Test volume: 50 μl • Final concentrations: • 50 mM HEPES HCl, pH 7.0, 5 mM MgCl2, 0.01% (w/v) BSA • HSP90:1.5 μg/assay • [3H]17AAG: 0.08 μM.
At the end of the reaction, the supernatant in the filter plate is removed by suction with the aid of a vacuum manifold (Multiscreen Separation System, Millipore), and the filter is washed twice.
The filter plates are then measured in a beta counter (Microbeta, Wallac) with scintillator (Microscint 20, Packard).
“% of control” is determined from the “counts per minutes” values and the IC-50 value of a compound is calculated therefrom.
In the case of `COC(=O)c1cccc(COc2cc(-c3nc(N)nc4ccc(Cl)cc34)ccc2OC)c1` [Compound A108, 2-amino-6-chloro-4-[3-(3-methoxycarbonylbenzyloxy)-4-methoxyphenyl]quinazoline], the 50% inhibitory concentration (IC50) was 0.95 µM.
For `COC(=O)c1ccc(COc2cc(-c3nc(N)nc4ccc(Cl)cc34)ccc2OC)cc1` [Compound A109, 2-amino-6-chloro-4-[3-(4-methoxycarbonylbenzyloxy)-4-methoxyphenyl]quinazoline], the IC50 was 0.8 µM.
Regarding `COc1ccc(-c2nc(N)nc3ccc(Cl)cc23)cc1OCCCC(=O)O` [Compound A111, 2-amino-6-chloro-4-[3-(3-carboxypropoxy)-4-methoxyphenyl]quinazoline sodium salt], the half-maximal inhibitory concentration (IC50) was 0.58 µM.
Take `COc1ccc(-c2nc(N)nc3ccc(Cl)cc23)cc1OCc1cccc(C(=O)O)c1` [Compound A112, 2-amino-6-chloro-4-[3-(3-carboxybenzyloxy)-4-methoxyphenyl]quinazoline sodium salt]: the IC50 came out at 0.47 µM.
`COc1ccc(-c2nc(N)nc3ccc(Cl)cc23)cc1OCc1ccc(C(=O)O)cc1` [Compound A113, 2-amino-6-chloro-4-[3-(4-carboxybenzyloxy)-4-methoxyphenyl]quinazoline sodium salt]: the IC50 is 0.37 µM.
For `COc1ccc(-c2nc(N)nc3ccc(Cl)cc23)cc1OC` [Compound A134, 2-amino-6-chloro-4-(3,4-dimethoxyphenyl)quinazoline], the IC50 stood at 0.55 µM.
For the compound `COc1ccc(-c2nc(N)nc3ccc(Cl)cc23)cc1OCc1ccc(-c2nnn[nH]2)cc1` [Compound A138, 2-amino-6-chloro-4-{3-[4-(1H-tetrazol-5-yl)benzyloxy]-4-methoxyphenyl}quinazoline], the IC50 turned out to be 0.54 µM.
